Source: ChEMBL document CHEMBL1201862, “PubChem BioAssay data set” (2004)
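Five compound concentrations were applied to cells in 96-well plates for 48 hours; endpoints were derived by simple linear interpolation of the resulting dose-response curve. At the GI50, growth is halved.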 Activity calls are given as the source filed them. No stated cut-off is given here; in the data, active = GI50 up to about 1.1 µM and inactive = higher.

Tests used:
Assay in all cases: growth of human tumour cells (NCI), 48 h
[1] = system: A549
[2] = system: CCRF-CEM
[3] = system: COLO 205
[4] = system: HCT-116
[5] = system: K562
[6] = system: KM12
[7] = system: M14
[8] = system: Malme-3M
[9] = system: NCI-H226
[10] = system: OVCAR-3
[11] = system: OVCAR-4
[12] = system: OVCAR-5
[13] = system: SK-MEL-2
[14] = system: SR
[15] = system: SW-620
[16] = system: U-251
[17] = system: UACC-62
[18] = system: A498
[19] = system: MCF7
[20] = system: NCI/ADR-RES

Row | Structure (SMILES) | GI50 [1] | GI50 [2] | GI50 [3] | GI50 [4] | GI50 [5] | GI50 [6] | GI50 [7] | GI50 [8] | GI50 [9] | GI50 [10] | GI50 [11] | GI50 [12] | GI50 [13] | GI50 [14] | GI50 [15] | GI50 [16] | GI50 [17] | GI50 [18] | GI50 [19] | GI50 [20]
1 | CCOC(=O)NC(=O)c1cn(CCNCCO)c(=O)[nH]c1=O | > 100 µM (inactive) | > 100 µM (inactive) | > 100 µM (inactive) | > 100 µM (inactive) | > 100 µM (inactive) | > 100 µM (inactive) | > 100 µM (inactive) | > 100 µM (inactive) | > 100 µM (inactive) | > 100 µM (inactive) | > 100 µM (inactive) | > 100 µM (inactive) | > 100 µM (inactive) | > 100 µM (inactive) | > 100 µM (inactive) | > 100 µM (inactive) | > 100 µM (inactive) |  |  | 
2 | NC(S)=Nc1cc(Cl)ccc1Cl | > 100 µM (inactive) | > 100 µM (inactive) | > 100 µM (inactive) | > 100 µM (inactive) | > 100 µM (inactive) | > 100 µM (inactive) | > 100 µM (inactive) | > 100 µM (inactive) | > 100 µM (inactive) | > 100 µM (inactive) | > 100 µM (inactive) | > 100 µM (inactive) | > 100 µM (inactive) | > 100 µM (inactive) | > 100 µM (inactive) | > 100 µM (inactive) | > 100 µM (inactive) | > 100 µM (inactive) |  | 
3 | CC(=O)Nc1ccc(C(=O)NN2C(=O)C(Cl)C2/C=C/c2ccccc2)cc1 (stereo unspecified) | > 100 µM (inactive) | > 100 µM (inactive) | > 100 µM (inactive) | > 100 µM (inactive) | > 100 µM (inactive) | > 100 µM (inactive) |  | > 100 µM (inactive) | > 100 µM (inactive) | > 100 µM (inactive) |  | > 100 µM (inactive) | > 100 µM (inactive) | > 100 µM (inactive) | > 100 µM (inactive) | > 100 µM (inactive) | > 100 µM (inactive) |  |  | 
4 | CC1(C)OC2COC3(CNO)OC(C)(C)OC3C2O1 (stereo unspecified) | > 100 µM (inactive) | > 100 µM (inactive) | > 100 µM (inactive) | > 100 µM (inactive) | > 100 µM (inactive) | > 100 µM (inactive) | > 100 µM (inactive) | > 100 µM (inactive) | > 100 µM (inactive) | > 100 µM (inactive) | > 100 µM (inactive) | > 100 µM (inactive) | > 100 µM (inactive) |  | > 100 µM (inactive) | > 100 µM (inactive) | > 100 µM (inactive) | > 100 µM (inactive) |  | 
5 | Nc1nc(=O)n(CC(O)CO)s1 (stereo unspecified) | > 100 µM (inactive) | > 100 µM (inactive) | > 100 µM (inactive) | > 100 µM (inactive) | > 100 µM (inactive) |  | > 100 µM (inactive) | > 100 µM (inactive) | > 100 µM (inactive) | > 100 µM (inactive) | > 100 µM (inactive) | > 100 µM (inactive) | > 100 µM (inactive) | > 100 µM (inactive) | > 100 µM (inactive) | > 100 µM (inactive) | > 100 µM (inactive) | > 100 µM (inactive) |  | 
6 | CC(C)(C)[Si](OC1CC(n2cnc3c(N)ncnc32)OC1CO)(c1ccccc1)c1ccccc1 (stereo unspecified) | 15.2 µM (inactive) | 12.9 µM (inactive) | 30.3 µM (inactive) | 17.2 µM (inactive) | 17.1 µM (inactive) | 19.8 µM (inactive) | 34.6 µM (inactive) | 19 µM (inactive) | 12.4 µM (inactive) | 16.6 µM (inactive) | 15 µM (inactive) | 18.6 µM (inactive) | 18.8 µM (inactive) | 14.5 µM (inactive) | 19 µM (inactive) | 17.1 µM (inactive) |  | 17.9 µM (inactive) |  | 
7 | COc1ccc(N2C(=O)CSC2c2c[nH]c3ccccc23)cc1 (stereo unspecified) |  | 39.5 µM (inactive) | 92.7 µM (inactive) | 59.2 µM (inactive) | 26.2 µM (inactive) | 28.4 µM (inactive) | > 100 µM (inactive) |  |  | > 100 µM (inactive) | > 100 µM (inactive) | > 100 µM (inactive) |  | 43 µM (inactive) | > 100 µM (inactive) | 88.7 µM (inactive) | 44.9 µM (inactive) |  | 70.1 µM (inactive) | 
8 | [O-][S+]1c2ccccc2NC(c2ccc3ccccc3c2)CC1c1ccccc1 (stereo unspecified) | 30.1 µM (inactive) | 17 µM (inactive) | 29.9 µM (inactive) |  | 16 µM (inactive) | 16.7 µM (inactive) | 40.5 µM (inactive) | 61.5 µM (inactive) | 20.6 µM (inactive) | 15.6 µM (inactive) | 23.9 µM (inactive) | 42 µM (inactive) | 92.7 µM (inactive) |  | 20 µM (inactive) |  | 37.1 µM (inactive) |  |  | 
9 | CCOC(=O)[C@H]1Nc2c(cccc2[N+](=O)[O-])[C@H]2OCC[C@@H]12 | > 100 µM (inactive) |  | > 100 µM (inactive) | > 100 µM (inactive) | > 100 µM (inactive) | > 100 µM (inactive) | > 100 µM (inactive) | > 100 µM (inactive) | > 100 µM (inactive) | > 100 µM (inactive) | > 100 µM (inactive) | > 100 µM (inactive) | > 100 µM (inactive) | > 100 µM (inactive) | > 100 µM (inactive) | > 100 µM (inactive) | > 100 µM (inactive) |  |  | 
10 | N=C(N)NS(=O)(=O)c1ccc(Nc2c3ccccc3nc3c(C(=O)N4CCN(CCO)CC4)ccc(Cl)c23)cc1 | > 100 µM (inactive) | > 100 µM (inactive) | > 100 µM (inactive) | > 100 µM (inactive) | > 100 µM (inactive) | > 100 µM (inactive) | > 100 µM (inactive) | > 100 µM (inactive) | > 100 µM (inactive) | > 100 µM (inactive) | > 100 µM (inactive) | > 100 µM (inactive) | > 100 µM (inactive) |  |  | > 100 µM (inactive) | > 100 µM (inactive) | > 100 µM (inactive) |  | 
11 | CN(C)c1ccc(C2ON=C(c3ccccc3)N2C23CC4CC(CC(C4)C2)C3)cc1 (stereo unspecified) | > 10 µM (inactive) | > 10 µM (inactive) | > 10 µM (inactive) | > 10 µM (inactive) | 9.12 µM (inactive) | > 10 µM (inactive) | > 10 µM (inactive) | > 10 µM (inactive) | > 10 µM (inactive) | > 10 µM (inactive) | > 10 µM (inactive) | > 10 µM (inactive) | > 10 µM (inactive) | 8.02 µM (inactive) | > 10 µM (inactive) | > 10 µM (inactive) | > 10 µM (inactive) | > 10 µM (inactive) |  | > 10 µM (inactive)
12 | C[Si](C)(C)CC(N)=O | > 100 µM (inactive) | > 100 µM (inactive) | > 100 µM (inactive) | > 100 µM (inactive) | > 100 µM (inactive) | > 100 µM (inactive) | > 100 µM (inactive) | > 100 µM (inactive) | > 100 µM (inactive) | > 100 µM (inactive) | > 100 µM (inactive) | > 100 µM (inactive) | > 100 µM (inactive) |  | > 100 µM (inactive) | > 100 µM (inactive) | > 100 µM (inactive) |  |  | 
13 | CC(C)(Br)C(Br)CCC(C)(Br)C(Br)CO (stereo unspecified) | > 10 µM (inactive) | > 10 µM (inactive) | > 10 µM (inactive) | > 10 µM (inactive) | > 10 µM (inactive) |  | > 10 µM (inactive) | > 10 µM (inactive) | > 10 µM (inactive) | > 10 µM (inactive) | > 10 µM (inactive) |  |  |  | > 10 µM (inactive) | > 10 µM (inactive) |  | > 10 µM (inactive) | > 10 µM (inactive) | > 10 µM (inactive)
14 | COc1ccc(-c2c(C#N)c(N)nc3c2CCS(=O)(=O)c2ccccc2-3)cc1 | > 100 µM (inactive) | > 100 µM (inactive) | > 100 µM (inactive) | > 100 µM (inactive) | > 100 µM (inactive) | > 100 µM (inactive) |  | 44.3 µM (inactive) | > 100 µM (inactive) |  | > 100 µM (inactive) |  | > 100 µM (inactive) | > 100 µM (inactive) | > 100 µM (inactive) | > 100 µM (inactive) | > 100 µM (inactive) | > 100 µM (inactive) |  | > 100 µM (inactive)
15 | Cc1cnc(SCCN2CCN(C)CC2)nc1-c1cc2ccccc2s1 | 4.62 µM (inactive) | 3.18 µM (inactive) | 14.3 µM (inactive) | 11.4 µM (inactive) |  | 16.3 µM (inactive) | 13.2 µM (inactive) | 17 µM (inactive) | 11.9 µM (inactive) | 5.98 µM (inactive) | 16.7 µM (inactive) | > 10 µM (inactive) | 16.1 µM (inactive) | 2.48 µM (inactive) | 11.9 µM (inactive) | 8.36 µM (inactive) | 16.2 µM (inactive) | 15.3 µM (inactive) |  | 
16 | Cc1cccc(C)c1NC(=S)N/C=C(\C#N)C(N)=O | > 100 µM (inactive) | > 100 µM (inactive) | > 100 µM (inactive) | > 100 µM (inactive) | > 100 µM (inactive) | > 100 µM (inactive) | > 100 µM (inactive) | > 100 µM (inactive) | > 100 µM (inactive) | > 100 µM (inactive) | > 100 µM (inactive) | > 100 µM (inactive) | > 100 µM (inactive) |  | > 100 µM (inactive) | > 100 µM (inactive) | > 100 µM (inactive) |  | > 100 µM (inactive) | > 100 µM (inactive)
17 | CCN(CC)c1ccc2cc(C(=O)Nc3ccc4[nH]c(C(=O)N5C[C@@H](CCl)c6c5cc(OC(=O)Nc5ccccc5)c5[nH]cc(C)c65)cc4c3)oc2c1 [CARZELESIN] | 0.000162 µM (active) | 0.000168 µM (active) |  | 152 µM (inactive) | 0.000556 µM (active) | 678 µM (inactive) |  | 0.000256 µM (active) |  | 245 µM (inactive) | 0.000426 µM (active) | 0.000601 µM (active) | 0.000601 µM (active) |  | 0.000321 µM (active) |  | 4.61e-05 µM (active) | 0.00024 µM (active) | 9.25e-05 µM (active) | 
